Assay results reported in PubChem BioAssay (NCI).
Several values for one entry are separate records, joined by “and”; a condition that tells them apart may be missing. Equal values may be shown once.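 A five-concentration, 48-hour dose response in 96-well plates underlies each endpoint, interpolated linearly between surrounding concentrations. At the GI50, growth is halved. TGI denotes the concentration required for complete inhibition of growth.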

Assays:
Assay in all cases: NCI tumour cell line growth inhibition, 48 h
A498 renal = test system: A498 renal
HCT-116 colon = test system: HCT-116 colon
M14 melanoma = test system: M14 melanoma
MOLT-4 leukemia = test system: MOLT-4 leukemia
NCI-H460 lung = test system: NCI-H460 lung
OVCAR-5 ovarian = test system: OVCAR-5 ovarian
PC-3 prostate = test system: PC-3 prostate
RXF 393 renal = test system: RXF 393 renal
UACC-62 melanoma = test system: UACC-62 melanoma
UO-31 renal = test system: UO-31 renal

| SMILES | GI50 (A498 renal) | TGI (A498 renal) | GI50 (HCT-116 colon) | TGI (HCT-116 colon) | GI50 (M14 melanoma) | TGI (M14 melanoma) | GI50 (MOLT-4 leukemia) | TGI (MOLT-4 leukemia) | GI50 (NCI-H460 lung) | TGI (NCI-H460 lung) | GI50 (OVCAR-5 ovarian) | TGI (OVCAR-5 ovarian) | GI50 (PC-3 prostate) | TGI (PC-3 prostate) | GI50 (RXF 393 renal) | TGI (RXF 393 renal) | GI50 (UACC-62 melanoma) | TGI (UACC-62 melanoma) | GI50 (UO-31 renal) | TGI (UO-31 renal) |
| --- | --- | --- | --- | --- | --- | --- | --- | --- | --- | --- | --- | --- | --- | --- | --- | --- | --- | --- | --- | --- |
| C#CCOc1c(OC)cc(C(=O)/C(C)=C/c2cccc(N=[N+]=[N-])c2)cc1OC | 0.151 µM | 0.714 µM | 0.0468 µM | 10.8 µM | 0.178 µM | > 100 µM | 0.362 µM | > 100 µM | 0.329 µM | 20.2 µM | 1.23 µM | > 100 µM | 0.132 µM | > 100 µM | 0.25 µM | > 100 µM | 0.253 µM | > 100 µM | 0.751 µM | > 100 µM |
| OCCCNC(=S)Nc1ccc(-c2nc3ccccc3s2)cc1 |  |  | 19.9 µM | 46.2 µM | 23.3 µM | 49 µM | 16.7 µM | > 100 µM | 25.9 µM | > 100 µM | 20.6 µM | 58.3 µM | 27.7 µM | > 100 µM | 10.4 µM | 52.4 µM | 18.6 µM | 41 µM | 12 µM | 60.7 µM |
| CCN1CCN(Cc2ccc3cc(C(=O)Nc4cc(NC(=O)c5ccc6c(c5)OCCO6)ccc4F)ccc3n2)CC1 | 0.0159 µM | 0.265 µM | 0.0354 µM | 13 µM | 0.0505 µM | 11.8 µM | 0.0504 µM | 2.23 µM | 0.037 µM | 0.563 µM | 0.0858 µM | 12.5 µM | 0.0593 µM | 11.6 µM | 0.0142 µM | 0.0729 µM | 0.0575 µM | 1.19 µM | 0.0376 µM | 1.13 µM |
| Cn1cc(C2=C(c3cccc(NCC(O)CO)c3)C(=O)NC2=O)c2cc(Cl)ccc21 (stereo unspecified) | 0.0817 µM | 4.43 µM | 2.4 µM | > 25 µM | 6.59 µM | 18.4 µM | 4.2 µM | 18 µM | 5.45 µM | > 25 µM | 9.63 µM | > 20.9 µM | 2.88 µM | 12.9 µM | 2.82 µM | 7.18 µM | 4.66 µM | 11.6 µM | 5.99 µM | 17.6 µM |
| COC(C(=O)[C@@H](O)[C@@H](C)O)[C@@H]1Cc2cc3cc(O[C@H]4C[C@@H](O[C@H]5C[C@@H](O)[C@H](O)C(C)O5)[C@H](O)C(C)O4)c(C)c(O)c3c(O)c2C(=O)[C@H]1O[C@H]1C[C@@H](O[C@H]2C[C@@H](O[C@H]3C[C@@H](O)[C@@H](O)C(C)O3)[C@@H](O)C(C)O2)[C@H](O)C(C)O1 (stereo partly specified) | 0.0542 µM | 0.278 µM | 0.275 µM | > 32.5 µM | 0.633 µM | 7.61 µM | 1.04 µM | > 32.5 µM | 0.104 µM | > 32.5 µM | 0.485 µM | > 32.5 µM | 0.914 µM | > 32.5 µM | 0.202 µM | 1.01 µM | 0.0564 µM | 0.283 µM | 0.605 µM | 4.75 µM |
| COC(=O)C12OCC34C(CC5C(C)=CC(=O)C(O)C5(C)C3C(O)C1O)OC(=O)C(OC(=O)CC(C)C)C24 (stereo unspecified) | < 0.0575 µM | 0.00627 µM and < 0.0791 µM |  |  | 0.0034 µM | 0.0129 µM and 0.0689 µM |  |  |  |  | 0.0825 µM and 0.0586 µM |  |  | 0.0121 µM | 0.0427 µM and 0.05 µM |  | 0.0478 µM and 0.05 µM |  | 0.256 µM and 0.0637 µM |  |
| O=C(O)c1cn(C2CC2)c2cc(N3CCN(C(=O)Nc4nc(-c5ccc(Cl)cc5)cs4)CC3)c(F)cc2c1=O | 1.47 µM | 9.46 µM | 1.12 µM | > 100 µM | 2.86 µM | > 100 µM |  |  | 1.76 µM | > 100 µM | 3.4 µM | > 100 µM | 2.7 µM | > 100 µM | 3.37 µM | 54.6 µM | 2.4 µM | 37.9 µM | 0.596 µM | 33.7 µM |
| COc1ccc2c(c1)N(CCC1CCCCN1C)c1ccccc1S2 (stereo unspecified) |  | 23.8 µM |  | 27.2 µM |  | 10.9 µM |  | 17.2 µM |  | 21.5 µM |  | 31.2 µM |  | 22.7 µM |  | 21.8 µM |  | 25.2 µM |  |  |
| COc1ccc(/C=C/C(=O)c2ccc(NC(=O)CSc3nnc(-c4cc(OC)c(OC)c(OC)c4)o3)cc2)cc1 | 11 µM | 23.6 µM |  |  | 1.6 µM | 3.3 µM | 2.05 µM | 5.27 µM | 2 µM | 3.85 µM | 1.72 µM | 3.3 µM | 1.75 µM | 3.3 µM | 1.74 µM | 3.54 µM | 1.73 µM | 3.43 µM | 1.46 µM | 2.97 µM |
| CC1=C(C(=O)Nc2ccc(Cl)c(Cl)c2)C(c2cccc(O)c2)NC(=S)N1 (stereo unspecified) |  |  | 18.1 µM | > 50 µM | 13.6 µM | 26.7 µM | 16.8 µM | > 50 µM | 13.5 µM | 21.4 µM | > 50 µM | > 50 µM | 9.54 µM | 31.4 µM | 12.8 µM | 29.3 µM | 7.09 µM | 14.7 µM | 9.48 µM | 19.1 µM |
| COc1ccc(OC)c(/C=C/c2cnnc3ccccc23)c1 |  |  |  | > 10 µM |  | > 10 µM |  | > 10 µM |  | > 10 µM |  | > 10 µM |  | > 10 µM |  | > 10 µM |  | > 10 µM |  | > 10 µM |
| C#Cc1ccc(-n2c(/C=C/c3ccc4ccccc4n3)nc3ncccc3c2=O)cc1 | 0.138 µM | 0.615 µM | 0.346 µM | 1.2 µM |  |  | 0.456 µM | > 100 µM | 0.776 µM | 2.91 µM |  |  | 0.341 µM | 1.75 µM | 0.269 µM | 0.792 µM | 0.394 µM | 1.75 µM | 0.403 µM | 1.8 µM |
| CCNCCNc1cc(C2CCCC2)c(C#N)c2nc3ccccc3n12 | 2.67 µM | 8.32 µM | 1.95 µM | 3.89 µM | 2.06 µM | 4.08 µM |  |  | 2.75 µM | 7.19 µM | 5.13 µM | 19.9 µM | 6.1 µM | 19.3 µM | 1.81 µM | 4 µM | 1.92 µM | 3.76 µM | 1.67 µM | 3.18 µM |
| Cc1ccc(S(=O)(=O)C2=C3C(=C(c4ccccc4)c4ccccc43)CN(S(=O)(=O)c3ccc(C)cc3)C2)cc1 |  |  | 2 µM | 7.78 µM | 5.63 µM | 34.4 µM | 1.36 µM | 7.9 µM | 1.94 µM | 15.1 µM | 25.4 µM | > 100 µM | 3.39 µM | > 100 µM | 4.01 µM | 16 µM | 4.85 µM | 24.9 µM | 1.95 µM | 18.2 µM |
